Drawing on US9850283B2, “Macrocyclic inhibitors of the PD-1/PD-L1 and CD80(B7-1)/PD-L1 protein/protein interactions” (BRISTOL-MYERS SQUIBB COMPANY, priority 2013, dated 2017), this text covers IC50 for 11 compounds.

For assay [1], the target named is T1, Human PD-L1/PD-1 (Homo sapiens, UniProt Q9NZQ7).
T1 construct: made in house; host or cells: HEK293T
The experiment in a line: HTRF PD-1-Ig/PD-L1-His binding assay (human PD-L1). In short, it runs like this: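 Ig- and His-fused extracellular PD-1/PD-L1 binding in BSA/Tween-20 dPBS. HTRF with Eu anti-Ig (1 nM final) and APC anti-His (20 nM final).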

Assay [2] addresses T2, LK35.2-hPD-L1 cells / PE-labeled PD-1-Ig (Homo sapiens, UniProt Q9NZQ7).
T2 construct: expressed in transfected cells; host or cells: LK35.2 mouse B cell line
The experiment in a line: LK35.2-hPD-L1 cell binding high-content screening assay. It counts as cell-based. In short, it runs like this:
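Fluorescent PD-1-Ig binding to PD-L1-expressing LK35.2 cells, imaged after washing. Conditions: 1 nM PE-PD-1-Ig, 37 °C, 1 h, RPMI with 10% fetal calf serum.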

Where [3] appears, read: cluster symbol, read-out: HTRF IC50 cluster.
Setting [4] is: cell binding assay, cell line not given, cluster symbol, read-out: CBA IC50 cluster.
Setting [5] is: cluster symbol, cell line of CBA not given (LK35.2-hPD-L1 or 293T-hPD-L1), read-out: CBA IC50 cluster.

Like-named read-outs stand apart in the source and are kept apart here. Positions of bridges follow the written chain, without caps; N, C: chain ends. Non-standard residues stand in square brackets, D forms with d. Residues, ends and D or L forms follow the SMILES beside them. ξ: configuration not given here. Phe(3,4-(OMe)2) = COc1ccc(C[C@H](N)C(=O)O)cc1OC; Phe(2-Cl) = N[C@@H](Cc1ccccc1Cl)C(=O)O; Hyp = O=C(O)[C@@H]1C[C@@H](O)CN1; NMeF = CN[C@@H](Cc1ccccc1)C(=O)O; dNMeNle = CCCC[C@@H](NC)C(=O)O; AllylGly = C=CC[C@H](N)C(=O)O; NMeNle = CCCC[C@H](NC)C(=O)O; NMeA = CN[C@@H](C)C(=O)O; dDap = NC[C@@H](N)C(=O)O; Dab = NCC[C@H](N)C(=O)O; ξP = O=C(O)C1CCCN1; Sar = CNCC(=O)O

T1 sequence (Q9NZQ7 with tags, fused parts or gaps): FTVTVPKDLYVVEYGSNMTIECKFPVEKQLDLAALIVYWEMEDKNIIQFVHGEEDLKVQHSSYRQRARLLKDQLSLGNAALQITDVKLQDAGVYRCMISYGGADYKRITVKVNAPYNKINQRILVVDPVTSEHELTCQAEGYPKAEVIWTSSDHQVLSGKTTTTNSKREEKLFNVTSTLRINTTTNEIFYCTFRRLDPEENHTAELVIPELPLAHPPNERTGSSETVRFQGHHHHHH
T2 sequence (Q9NZQ7 19-290): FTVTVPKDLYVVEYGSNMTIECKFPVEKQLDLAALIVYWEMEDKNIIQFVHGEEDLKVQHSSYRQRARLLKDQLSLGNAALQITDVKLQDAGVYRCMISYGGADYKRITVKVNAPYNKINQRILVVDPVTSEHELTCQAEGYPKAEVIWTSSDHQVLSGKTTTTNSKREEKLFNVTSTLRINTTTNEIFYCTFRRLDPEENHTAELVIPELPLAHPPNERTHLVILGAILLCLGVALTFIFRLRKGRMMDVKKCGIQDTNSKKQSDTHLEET

Regarding `CCCC[C@H]1C(=O)N(C)[C@@H](CCCC)C(=O)N[C@@H](CC(C)C)C(=O)N[C@H](C(=O)NCC(N)=O)CSCC(=O)N[C@@H](Cc2ccc(O)cc2)C(=O)N(C)[C@@H](C)C(=O)N[C@@H](CC(N)=O)C(=O)N2CCC[C@H]2C(=O)N[C@@H](Cc2c[nH]cn2)C(=O)N[C@@H](CCCCN)C(=O)N2C[C@H](O)C[C@H]2C(=O)N[C@@H](Cc2c[nH]c3ccccc23)C(=O)N[C@@H](CCCCN)C(=O)N[C@@H](Cc2c[nH]c3ccccc23)C(=O)N1C` [Example 5089] ({CH2CO}-Y[NMeA]NPHK[Hyp]WKW[NMeNle][NMeNle]LCG-NH2; thioether N-14), the results for the half-maximal inhibitory concentration (IC50) in assay [1] (setting [3]) and in assay [2] (setting [4]) were 0.385 to 6.74 nM and 0.158 to 4.71 nM, respectively.
`CCCC[C@H]1C(=O)N(C)[C@@H](CCCC)C(=O)N[C@@H](CCCNC(=N)N)C(=O)N[C@H](C(=O)NCC(N)=O)CSCC(=O)N[C@@H](Cc2ccc(OC)c(OC)c2)C(=O)N(C)[C@@H](C)C(=O)N[C@@H](CC(N)=O)C(=O)N2CCC[C@H]2C(=O)N[C@@H](Cc2cnc[nH]2)C(=O)N[C@@H](CC(C)C)C(=O)N(C)CC(=O)N[C@@H](Cc2c[nH]c3ccccc23)C(=O)N[C@@H](CO)C(=O)N[C@@H](Cc2c[nH]c3ccccc23)C(=O)N1C` [Example 1105] ({CH2CO}-[Phe(3,4-(OMe)2)][NMeA]NPHL[Sar]WSW[NMeNle][NMeNle]RCG-NH2; thioether N-14): the IC50 was in the range of 6.76 to 30.3 nM in assay [1] (setting [3]) and 4.78 to 72.9 nM in assay [2] (setting [5]).
Consider `C=CC[C@@H]1NC(=O)[C@H](Cc2c[nH]c3ccccc23)NC(=O)[C@@H]2CCCN2C(=O)[C@H](CC(C)C)NC(=O)[C@H](Cc2cnc[nH]2)NC(=O)[C@@H]2CCCN2C(=O)[C@H](CC(N)=O)NC(=O)[C@H](C)N(C)C(=O)[C@H](Cc2ccc(O)cc2)NC(=O)CSC[C@@H](C(=O)NCC(N)=O)NC(=O)[C@H](CC=C)NC(=O)[C@H](CCCC)N(C)C(=O)[C@H](CCCC)N(C)C(=O)[C@H](Cc2c[nH]c3ccccc23)NC1=O` [Example 7014] ({CH2CO}-Y[NMeA]NPHLPW[AllylGly]W[NMeNle][NMeNle][AllylGly]CG-NH2; thioether N-14), for which the IC50 in assay [1] (setting [3]) was in the range of 0.385 to 6.74 nM; in assay [2] (setting [4]) it was 0.158 to 4.71 nM.
With `CCCC[C@H]1C(=O)N(C)[C@@H](CCCC)C(=O)N[C@@H](CCCNC(=N)N)C(=O)N[C@H](C(=O)NCC(N)=O)CSCC(=O)N[C@@H](Cc2ccccc2)C(=O)N(C)[C@@H](C)C(=O)N[C@@H](CC(N)=O)C(=O)N2CCC[C@H]2C(=O)N[C@@H](CCN)C(=O)N[C@@H](CC(C)C)C(=O)N(C)CC(=O)N[C@@H](Cc2c[nH]c3ccccc23)C(=O)N[C@@H](CO)C(=O)N[C@@H](Cc2c[nH]c3ccccc23)C(=O)N1C` [Example 1062] ({CH2CO}-F[NMeA]NP[Dab]L[Sar]WSW[NMeNle][NMeNle]RCG-NH2; thioether N-14), the IC50 lay in the range of 6.76 to 30.3 nM in assay [1] (setting [3]) and 4.78 to 72.9 nM in assay [2] (setting [5]).
On the same counts, the results for `CCCC[C@H]1C(=O)N(C)CC(=O)N[C@@H](CC(=O)O)C(=O)N[C@@H](C(C)C)C(=O)N(C)[C@@H](Cc2ccccc2)C(=O)N2CCC[C@H]2C(=O)N2CCC[C@@H]2C(=O)N[C@@H](Cc2c[nH]c3ccccc23)C(=O)N[C@@H](Cc2ccc(O)cc2)C(=O)N[C@@H](CC(C)C)C(=O)N[C@H](C(=O)NCC(N)=O)CSCC(=O)N[C@@H](Cc2ccccc2)C(=O)N(C)[C@@H](Cc2ccccc2)C(=O)N1C` [Example 3176] (HELM PEPTIDE1{[O=C(C[*:3])[*:2]].F.[meF].[CCCC[C@@H](C(=O)[*:2])N(C)[*:1]].[Sar].D.V.[meF].P.[dP].W.Y.L.C.G.[am]}$PEPTIDE1,PEPTIDE1,1:R3-14:R3$$$V2.0) are more than 30.5 nM and more than 74.3 nM.
On the same counts, the results for `CC(C)C[C@@H]1NC(=O)[C@H](Cc2ccc(O)cc2)NC(=O)[C@H](Cc2c[nH]c3ccccc23)NC(=O)CN(C)C(=O)[C@H](Cc2ccc(O)cc2)NC(=O)[C@H](Cc2ccccc2)N(C)C(=O)[C@H](C(C)C)NC(=O)[C@H](CC(=O)O)NC(=O)CN(C)C(=O)[C@H](CCC(=O)O)N(C)C(=O)[C@H](Cc2ccccc2)N(C)C(=O)[C@H](Cc2ccccc2)NC(=O)CSC[C@@H](C(=O)NCC(N)=O)NC1=O` [Example 3061] (HELM PEPTIDE1{[O=C(C[*:3])[*:2]].F.[meF].[meE].[Sar].D.V.[meF].Y.[Sar].W.Y.L.C.G.[am]}$PEPTIDE1,PEPTIDE1,1:R3-14:R3$$$V2.0) are 6.76 to 30.3 nM and more than 74.3 nM.
The like results for `CCCC[C@@H]1C(=O)N(C)[C@H](CCCC)C(=O)N[C@@H](C)C(=O)N[C@@H](C(=O)NCC(N)=O)CSCC(=O)N[C@@H](Cc2ccc(O)cc2)C(=O)N2CCCC2C(=O)N[C@H](CC(N)=O)C(=O)N2CCC[C@H]2C(=O)N[C@H](CN)C(=O)N[C@@H](CCC(N)=O)C(=O)N2CCCC2C(=O)N[C@H](Cc2c[nH]c3ccccc23)C(=O)N[C@@H](CCN)C(=O)N[C@@H](Cc2c[nH]c3ccccc23)C(=O)N1C` (stereo partly shown) [Example 1211] ({CH2CO}-Y[ξP][dN]P[dDap]Q[ξP][dW][Dab]W[dNMeNle][dNMeNle]A[dC]G-NH2; thioether N-14) were, in that order, 6.76 to 30.3 nM and more than 74.3 nM.
As for `CCCC[C@H]1C(=O)N(C)[C@@H](CCCC)C(=O)N[C@@H](CCC(=O)O)C(=O)N[C@H](C(=O)NCC(N)=O)CSCC(=O)N[C@@H](Cc2ccc(O)cc2)C(=O)N(C)[C@@H](C)C(=O)N[C@@H](CCN)C(=O)N2CCC[C@H]2C(=O)N[C@@H](CO)C(=O)N[C@@H](CCC(=O)O)C(=O)N2C[C@H](O)C[C@H]2C(=O)N[C@@H](Cc2c[nH]c3ccccc23)C(=O)N[C@@H](CCCCN)C(=O)N[C@@H](Cc2c[nH]c3ccccc23)C(=O)N1C` [Example 5085] ({CH2CO}-Y[NMeA][Dab]PSE[Hyp]WKW[NMeNle][NMeNle]ECG-NH2; thioether N-14), the figures for the IC50 in assay [1] (setting [3]) and in assay [2] (setting [4]) were 0.385 to 6.74 nM and 0.158 to 4.71 nM, respectively.
For `CCCC[C@H]1C(=O)N(C)CC(=O)N[C@@H](CC(=O)O)C(=O)N[C@@H](C(C)C)C(=O)N(C)[C@@H](Cc2ccccc2)C(=O)N[C@@H](Cc2ccc(O)cc2)C(=O)N(C)CC(=O)N[C@@H](Cc2c[nH]c3ccccc23)C(=O)N[C@@H](Cc2ccc(O)cc2)C(=O)N[C@@H](CC(C)C)C(=O)N[C@H](C(=O)NCC(N)=O)CSCC(=O)N[C@@H](Cc2ccccc2)C(=O)N(C)[C@@H](Cc2cccc3ccccc23)C(=O)N1C` (single isomer, unassigned) [Example 3585-A], the concentration for half-maximal inhibition (IC50) in assay [1] (setting [3]) was more than 30.5 nM; in assay [2] (setting [4]), more than 74.3 nM.
Take `CCCC[C@H]1C(=O)N(C)CC(=O)N[C@@H](CC(=O)O)C(=O)N[C@@H](C(C)C)C(=O)N[C@@H](Cc2ccccc2Cl)C(=O)N[C@@H](Cc2ccc(O)cc2)C(=O)N(C)CC(=O)N[C@@H](Cc2c[nH]c3ccccc23)C(=O)N[C@@H](Cc2ccc(O)cc2)C(=O)N[C@@H](CC(C)C)C(=O)N[C@H](C(=O)NCC(N)=O)CSCC(=O)N[C@@H](Cc2ccccc2)C(=O)N(C)[C@@H](Cc2ccccc2)C(=O)N1C` [Example 3132] ({CH2CO}-F[NMeF][NMeNle][Sar]DV[Phe(2-Cl)]Y[Sar]WYLCG-NH2; thioether N-13): the IC50 in assay [1] (read-out: HTRF IC50 value) was found to be 2230 nM; in assay [2] (cell line of CBA not given (LK35.2-hPD-L1 or 293T-hPD-L1), read-out: CBA IC50 value) it was 3780 nM.
In the case of `CCCC[C@H]1C(=O)N(C)[C@@H](CCCC)C(=O)N[C@@H](CC(C)C)C(=O)N[C@H](C(=O)NCC(N)=O)CSCC(=O)N[C@@H](Cc2ccc(O)cc2)C(=O)N(C)[C@@H](C)C(=O)N[C@@H](CC(N)=O)C(=O)N2CCC[C@H]2C(=O)N[C@@H](Cc2c[nH]cn2)C(=O)N[C@@H](CCC(N)=O)C(=O)N2C[C@H](O)C[C@H]2C(=O)N[C@@H](Cc2c[nH]c3ccccc23)C(=O)NCC(=O)N[C@@H](Cc2c[nH]c3ccccc23)C(=O)N1C` [Example 5109] ({CH2CO}-Y[NMeA]NPHQ[Hyp]WGW[NMeNle][NMeNle]LCG-NH2; thioether N-14), the figures for the concentration for half-maximal inhibition (IC50) in assay [1] (setting [3]) and in assay [2] (setting [4]) were 0.385 to 6.74 nM and 0.158 to 4.71 nM, respectively.

In general, IC50 refers to the concentration that gives 50% inhibition.
